*1 amine or outer side, *2 acyl side, *3 side chain or, on linkers, in order; H or OH if unused. Where a SMILES comes first, the peptide text is derived from it. Bridges are numbered along the chain shown (N, C = ends). [ ]: non-standard residue; d: D form. 2Nal = N[C@@H](Cc1ccc2ccccc2c1)C(=O)O; AEF = NCCOc1ccc(C[C@H](N)C(=O)O)cc1; X1 = O=C(Cc1ccc(CN[*:1])cc1)[*:2]; 3Pal = N[C@@H](Cc1cccnc1)C(=O)O; αMeL = CC(C)C[C@](C)(N)C(=O)O; Dab = NCC[C@H](N)C(=O)O

A short description of data set [1]: Peptide stability in simulated intestinal fluid (SIF). The class given is in vitro ADME. The conditions noted are these: for remaining at 4 h, 10 µM: pH 6.8, read-out: SIF (% after 4 h). An outline of the steps:
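Peptides were incubated at 37 °C with gentle shaking in pH 6.8 potassium phosphate SIF containing porcine pancreatin (10 g/L). Supernatants were analysed by LC-HRMS. Percent remaining at each timepoint, including 4 h, was calculated relative to time zero from absolute peak areas.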

Data set [2] deals with IL-23 mediated STAT3 signalling (Homo sapiens, UniProt Q5VWK5). Kind of data set: Functional inhibition of IL-23 mediated STAT3 signalling (phospho-STAT3 Tyr705 MSD, DB cells). The note with it: Example 2 (Tables 2-1 to 2-4), read-out: IC50 (pSTAT3). The class given is cell-based. Here is the method:
The ability of compounds to inhibit IL-23 mediated signalling was determined in the human-derived DB cell line (CRL-2289) (hereafter referred to as DB cells), which endogenously expresses the human IL-23R and human IL-12R β1 subunits. Upon binding of IL-23, the IL-23R forms a heterodimer signalling complex together with IL-12R β1, which through the JAK2/STAT3 pathway promotes phosphorylation of STAT3 to form phospho-STAT3. In the assay, the functional antagonism of IL-23 mediated phospho-STAT3 formation in DB cells by the compound is quantified using reagents capable of measuring the phosphorylation state of Tyr705 of STAT3 in the form of a phospho-STAT3 (Tyr705) MSD (Meso Scale Discovery) kit.
[…]. For compounds tested in this assay, the response was normalized relative to control values to calculate the IC50 and maximal inhibitory response from a concentration response curve of the compound in presence of a fixed concentration of human IL-23.
The assay procedure was as follows. DB cells were maintained in growth medium consisting of RPMI-1640 [Invitrogen 61870-010] supplemented with 10% V/V Foetal Bovine Serum (FBS) [(heat inactivated), Invitrogen 10270-106], and 1% V/V Penicillin-Streptomycin (Pen-Strep) Solution [Invitrogen 15140]. On the day of assay, cells were resuspended in Assay buffer consisting of RPMI-1640 [Invitrogen 61870-010] supplemented with 0.1 % w/V BSA [Sigma-Aldrich A9430] to a density of 7.5x10^6 cells/mL. Compounds to be tested for inhibition of hIL-23 mediated signalling were serially diluted in Assay buffer to 3X the final concentration. A solution of hIL-23 corresponding to 3X the EC80 of hIL-23 (1.7 nM) was also prepared in Assay buffer. To initiate the assay, 20 µL of DB cell suspension (corresponding to 150.000 cells/well) was added to the wells of a 96-well V-bottom Polypropylene plate [Corning 3363] followed by addition of 3X 20 µL of the diluted test compounds to separate wells. Following preincubation of the DB cells with inhibitor for 15 min in a cell incubator (37 °C, 5% CO2), 20 µL of the prepared 3X the EC80 of hIL-23 solution was added to each well and incubated for 90 min in a cell incubator (37 °C, 5% CO2). For some wells buffer only or IL-23 only corresponding to the EC80 was added to obtain readouts needed for normalization. To terminate the assay, the plate was spun at 1000 G for 5 min to pellet cells, the supernatant removed using an 8-channel manual pipette, and then added 50 µL/well Complete Lysis Buffer from the MSD STAT3 kit (Cat# K150SVD, Mesoscale) to the cell pellet. To completely lyse cells to release phospho-STAT3 for detection, the plate was shaken for 10 min at room temperature (500 rpm) sealed with aluminium foil and placed at -80 °C for a minimum of 15 min. Detection of the phospho-STAT3 level in the cell lysate from the individual wells was determined using the MSD STAT3 kit (Cat# K150SVD, Mesoscale) and read on a Meso QuickPlex SQ 120 plate reader (Mesoscale).
For data analysis raw data counts from the Meso QuickPlex SQ 120 plate reader were normalized relative to the response by the EC80 of hIL-23 alone (no compound added) and the buffer level. Compound potency (IC50) and maximal inhibitory response (% inhibition) were estimated by computer-aided curve fitting using a 4-parameter logistic (4PL) non-linear model. […]. Typically compounds with a low IC50 are desired. Typically compounds capable of completely inhibiting the IL23-induced response are desired. […]. Table 3-2: hIL-23 (pSTAT3) antagonist IC50 and % inhibition data

A short description of data set [3]: Peptide stability in simulated gastric fluid (SGF). The class given is in vitro ADME. The conditions noted are these: pig, simulated gastric fluid (SGF) with porcine pepsin, 37 °C, pH 1.2, porcine pepsin 3.2 g/L. The method, boiled down: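 Peptide incubated at 37 °C with gentle shaking in SGF (NaCl, pH 1.2). Samples centrifuged, diluted and analysed by LC-HRMS; percent remaining at each timepoint from absolute peak areas relative to time zero, with 4 h as the reference point.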

Setting [4] is: 37 °C, pH 6.8, porcine pancreatin 10 g/L, 10 µM.
Setting [5] is: pig, simulated intestinal fluid (SIF) with porcine pancreatin, Example 2 (Tables 2-1 to 2-4), intact peptide remaining after 4 h.

Sequence of IL-23 mediated STAT3 signalling (Q5VWK5 24-629 limits assumed): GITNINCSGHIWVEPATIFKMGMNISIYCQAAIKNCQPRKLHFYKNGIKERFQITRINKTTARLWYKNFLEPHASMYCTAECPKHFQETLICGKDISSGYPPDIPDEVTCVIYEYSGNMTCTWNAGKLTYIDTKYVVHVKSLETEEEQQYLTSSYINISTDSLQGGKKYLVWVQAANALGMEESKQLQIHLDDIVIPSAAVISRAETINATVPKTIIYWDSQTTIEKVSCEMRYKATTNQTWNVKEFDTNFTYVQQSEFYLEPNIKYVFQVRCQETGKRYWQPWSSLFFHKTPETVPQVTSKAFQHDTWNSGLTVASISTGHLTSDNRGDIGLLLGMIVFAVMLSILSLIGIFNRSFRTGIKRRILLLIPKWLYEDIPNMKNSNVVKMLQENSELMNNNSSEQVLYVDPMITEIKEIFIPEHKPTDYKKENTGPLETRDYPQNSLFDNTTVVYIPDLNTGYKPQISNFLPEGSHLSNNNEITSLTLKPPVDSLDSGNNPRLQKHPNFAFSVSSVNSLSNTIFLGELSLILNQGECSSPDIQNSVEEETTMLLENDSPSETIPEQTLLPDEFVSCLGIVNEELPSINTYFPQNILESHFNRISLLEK

With `CC(C)C[C@]1(C)NC(=O)[C@H](Cc2ccc3ccccc3c2)NC(=O)[C@H](Cc2ccc(OCCN)cc2)NC(=O)[C@@H]2CCNC(=O)CC[C@H](NC(=O)[C@H](CO)NC(=O)Cc3ccc(cc3)CNC(=O)CC[C@@H](C(=O)N[C@@H](CCN)C(=O)N[C@@H](Cc3cccnc3)C(=O)N[C@H](Cc3c[nH]cn3)C(N)=O)NC1=O)C(=O)N[C@@H](Cc1c[nH]c3ccccc13)C(=O)N[C@@H](CCC(N)=O)C(=O)N2` [Compound 10, [4-Aminomethyl-phenylacetyl](1c)*SE(2c)WQ[Dab](2c)[Y(2-aminoethoxy)][2-Nal][2-Me-Leu]E(1c)[Dab][3-(3-Pyridyl)-Ala][{d}H]-[NH2]] ([X1]SEWQ[Dab][AEF][2Nal][αMeL]E[Dab][3Pal][dH]-NH2; lactam 3-6, N-10), the “SIF (% remaining 4 h)” value in data set [1] (setting [4]) is 11%. For the same compound, the values for the remaining at 4 h, 10 µM in data set [1] (setting [5]) and in data set [3] were 11% and 86%, respectively. For the same compound, the remaining at 1 h, 10 µM in data set [1] (pig, simulated intestinal fluid (SIF) with porcine pancreatin, 1 h, 37 °C, pH 6.8, porcine pancreatin 10 g/L, 10 µM) was 34%; in data set [3], 97%. Also, in data set [2], the IC50 – broadly, the concentration that inhibits the measured activity by half – was determined as 38 pM.

`CC(C)C[C@]1(C)NC(=O)[C@H](Cc2ccc3ccccc3c2)NC(=O)[C@H](Cc2ccc(OCCN)cc2)NC(=O)[C@@H]2CCNC(=O)CC[C@H](NC(=O)[C@H](CO)NC(=O)Cc3ccc(cc3)CNC(=O)CC[C@@H](C(=O)N[C@@H](CCN)C(=O)NCCc3cccnc3)NC1=O)C(=O)N[C@@H](Cc1c[nH]c3ccccc13)C(=O)N[C@@H](CCC(N)=O)C(=O)N2` [Compound 7, [4-Aminomethyl-phenylacetyl](1c)*SE(2c)WQ[Dab](2c)[Y(2-aminoethoxy)][2-Nal][2-Me-Leu]E(1c)[Dab]-[NH-(2-(pyridin-3-yl)ethyl)]]: the “SIF (% remaining 4 h)” value in data set [1] (setting [4]) was 130%. Further, the “SIF (% after 4 h)” value in data set [1] (Example 2 (Tables 2-1 to 2-4), intact peptide remaining after 4 h) was 130%. In addition, the IC50 in data set [2] was 130 pM. In data set [3], the remaining at 1 h, 10 µM is 77% and the remaining at 4 h, 10 µM is 82%.

With `CC(C)C[C@]1(C)NC(=O)[C@H](Cc2ccc3ccccc3c2)NC(=O)[C@H](Cc2ccc(OCCN)cc2)NC(=O)[C@@H]2CCNC(=O)CC[C@H](NC(=O)[C@H](CO)NC(=O)Cc3ccc(cc3)CNC(=O)CC[C@@H](C(=O)N[C@@H](CCN)C(=O)N(C)[C@@H](Cc3cccnc3)C(N)=O)NC1=O)C(=O)N[C@@H](Cc1c[nH]c3ccccc13)C(=O)N[C@@H](CCC(N)=O)C(=O)N2` [Compound 4, [4-Aminomethyl-phenylacetyl](1c)*SE(2c)WQ[Dab](2c)[Y(2-aminoethoxy)][2-Nal][2-Me-Leu]E(1c)[Dab][N-Me-3-(3-Pyridyl)-Ala]-[NH2]], the remaining at 4 h, 10 µM in data set [1] (setting [5]) was 89%. Also, the IC50 in data set [2] came to 6500 pM. Further, the remaining at 1 h, 10 µM in data set [3] is 97%.

For the compound `CC(C)C[C@]1(C)NC(=O)[C@H](Cc2ccc3ccccc3c2)NC(=O)[C@H](Cc2ccc(OCCN)cc2)NC(=O)[C@@H]2CCNC(=O)CC[C@H](NC(=O)[C@H](CO)NC(=O)Cc3ccc(cc3)CNC(=O)CC[C@@H](C(=O)N[C@@H](CCN)C(=O)NCCCCc3cccnc3)NC1=O)C(=O)N[C@@H](Cc1c[nH]c3ccccc13)C(=O)N[C@@H](CCC(N)=O)C(=O)N2` [Compound 6, [4-Aminomethyl-phenylacetyl](1c)*SE(2c)WQ[Dab](2c)[Y(2-aminoethoxy)][2-Nal][2-Me-Leu]E(1c)[Dab]-[NH-(4-(pyridin-3-yl)butanyl)]], the “SIF (% remaining 4 h)” value in data set [1] (setting [4]) is 73%. Moreover, the remaining at 4 h, 10 µM in data set [1] (setting [5]) is 73%. Besides, in data set [2], the IC50 was 3200 pM.

Regarding `CNC(=O)[C@H](Cc1cccnc1)NC(=O)[C@H](CCN)NC(=O)[C@@H]1CCC(=O)NCc2ccc(cc2)CC(=O)N[C@@H](CO)C(=O)N[C@H]2CCC(=O)NCC[C@H](NC(=O)[C@H](CCC(N)=O)NC(=O)[C@H](Cc3c[nH]c4ccccc34)NC2=O)C(=O)N[C@@H](Cc2ccc(OCCN)cc2)C(=O)N[C@@H](Cc2ccc3ccccc3c2)C(=O)N[C@@](C)(CC(C)C)C(=O)N1` [Compound 8, [4-Aminomethyl-phenylacetyl](1c)*SE(2c)WQ[Dab](2c)[Y(2-aminoethoxy)][2-Nal][2-Me-Leu]E(1c)[Dab][3-(3-Pyridyl)-Ala]-[NHMe]], the remaining at 4 h, 10 µM in data set [1] (setting [5]) was 105%. The IC50 in data set [2] was 53 pM.

The values are drawn from EP4471049A1 (Zealand Pharma A/S, priority 2023, dated 2024).
